Patent US12617771B2, “Diphenylpyrazole compound, and preparation method therefor and application thereof” (NORTHWEST A&F UNIVERSITY, priority 2021, dated 2026)
Structures can show the parent of a compound that is named as a salt.

Experiments:
[1] = test system: resistant strains of Plutella xylostella; test: Insecticidal synergistic activity with chlorantraniliprole, leaf dip, resistant strains (Yunnan); assay type: in vivo; settings: for Resistance ratio to chlorantraniliprole: chlorantraniliprole alone or with 200 mg/L synergist, 48 hours; for LC50 of chlorantraniliprole solution: in vivo
Experimental: (§1) Experiment: 96% chlorantraniliprole (Chl) original drug was prepared into mother liquor with a concentration of 50000 mg/L. During the test, 6 treatment solutions with concentrations of 500, 250, 125, 62.5, 31.25 and 15.63 mg/L were prepared. 200 mg/L of the compound PXG22 of the present invention was added to each treatment solution, 200 mg/L of diethyl maleate (DEM) was used as the control synergist, and water was used as another control. The Plutella xylostella (Linnaeus) larvae was collected from a vegetable field in Yunnan Province. Healthy 3rd instar larvae of the same age were selected for indoor biological activity assay.
(§2) Clean wild cabbage leaves were cut into discs with a diameter of 6.5 cm (avoiding main veins). The leaves were soaked in the pesticide solution for 10 seconds, then taken out, dried at 25° C., and placed in a petri dish with a diameter of 6.5 cm. 10 larvae of the resistant strains of Plutella xylostella at the early stage of 3rd instar were placed in each petri dish, which was covered with double-layer absorbent roll paper, and covered by the upper cover of the petri dish. It was placed face up in an incubator at a temperature of 25±1° C., a relative humidity of 65%-70%, and a light ratio (L:D) of 16: 8 h. Each treatment was replicated 4 times with 10 larvae per replicate. […] The test process is strictly in accordance with the standard: NY/T 1154.7-2006.
(§3) Experimental data analysis was carried out using practical statistical analysis and its computer processing platform (DPS) (TANG Qiyi et al., 1997). The toxicity regression equation of each agent was established, LC50 value and 95% confidence limit were calculated.

[2] = test system: resistant strains of Plutella xylostella; test: Insecticidal synergistic activity with indoxacarb, leaf dip, resistant strains (Huizhou); assay type: in vivo; settings: for LC50 of indoxacarb: in vivo; for Resistance ratio to indoxacarb: indoxacarb alone or with 200 mg/L synergist, 48 hours
Experimental: as §1, with “Experiment: 95% indoxacarb (Ind)” for “Experiment: 96% chlorantraniliprole (Chl)”, “the compounds PXG1, PXG2 and” for “the compound”, “invention were” for “invention was”, “in Huizhou city, Guangdong” for “in Yunnan”
as §2, §3

[3] = test system: ultra-high resistant strains of Plutella xylostella (Huizhou insect source); test: Insecticidal synergistic activity with chlorantraniliprole, ultra-high resistant strains (Huizhou insect source); assay type: in vivo; settings: for Resistance ratio to chlorantraniliprole: chlorantraniliprole alone or with 200 mg/L synergist, ultra-high resistant strains (Huizhou); for LC50 of chlorantraniliprole solution: in vivo
Experimental: as §1, §2, §3
Experiment: The method was the same as in Experimental Example 4. The tested Plutella xylostella was ultra-high resistance strains to chlorantraniliprole (Huizhou insect source). The compound PXG22 of the present invention was added at a concentration of 200 mg/L. The control synergist diethyl maleate (DEM) was added at a concentration of 200 mg/L.

[4] = test system: high resistant strains I of Plutella xylostella (Lianzhou insect source); test: Insecticidal synergistic activity with chlorantraniliprole, high resistant strains I (Lianzhou insect source); assay type: in vivo; settings: for Resistance ratio to chlorantraniliprole: high resistant strains I (Lianzhou)
Experimental: as §1, §2, §3
(§4) Experiment: The method was the same as in Experimental example 4, and the tested Plutella xylostella was the high resistant strains I against chlorantraniliprole (Lianzhou source). The added concentrations of the compound PXG22 of the present invention were 200 mg/L, 100 mg/L and 50 mg/L, and the added concentration of diethyl maleate (DEM) of the control synergist was maintained at 200 mg/L.

[5] = test system: high resistant strains II of Plutella xylostella (Lianzhou insect source); test: Insecticidal synergistic activity with chlorantraniliprole, high resistant strains II (Lianzhou insect source); assay type: in vivo; settings: for Resistance ratio to chlorantraniliprole: high resistant strains II (Lianzhou)
Experimental: as §1, §2, §3
as §4, with “II” for “I”, “100 mg/L, 50” for “100”, “25” for “50”

[6] = target: PxGSTδ1 (Plutella xylostella, UniProt D7URW9); test: Inhibition of PxGSTδ1 recombinant protein; assay type: biochemical; settings: read-out: 100 μM Inhibition rate %
Method in brief: (§5)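 Recombinant Plutella xylostella GSTs (1 μg) preincubated with compound in 100 mM PBS pH 7.2, 10 min, 30 °C; 1 mM CDNB and 1 mM GSH in PBS then added. A340 read every 1 min for 5 min; inhibition from A340 change vs control, IC50 by curve fit, triplicate.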

[7] = target: PxGSTσ1 (Plutella xylostella, UniProt Q6F436); test: Inhibition of PxGSTσ1 recombinant protein; assay type: biochemical; settings: read-out: 100 μM Inhibition rate %
Method in brief: as §5

[8] = target: PxGSTσ2 (Plutella xylostella, UniProt Q6F443); test: Inhibition of PxGSTσ2 recombinant protein; assay type: biochemical; settings: read-out: 100 μM Inhibition rate %
Method in brief: as §5

[9] = target: PxGSTε3 (Plutella xylostella, UniProt O77409); test: Inhibition of PxGSTε3 recombinant protein; assay type: biochemical; settings: read-out: 100 μM Inhibition rate %
Method in brief: as §5

[10] = target: Plutella xylostella GSTs; test: Inhibition of total GSTs enzyme of Plutella xylostella (CDNB method); assay type: biochemical
Method in brief: (§6)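 Total GSTs were taken from the 14,000 g supernatant of larval/nymph homogenate in 100 mM sodium phosphate with 1 mM EDTA, pH 7.2. Enzyme (5 μg) was preincubated with compound in PBS pH 7.2 containing 1 mM GSH for 10 min at 30 °C, then started with buffer containing 1 mM CDNB. IC50 was derived from inhibition of the 5-min ΔA340, done in triplicate.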

[11] = target: Carposina sasakii GSTs; test: Inhibition of total GSTs enzyme of Carposina sasakii (CDNB method); assay type: biochemical
Method in brief: as §6

[12] = target: Spodoptera litura GSTs; test: Inhibition of total GSTs enzyme of Spodoptera litura (CDNB method); assay type: biochemical
Method in brief: as §6

[13] = test system: Mythimna separata GSTs; test: Inhibition of total GSTs enzyme of Mythimna separata (CDNB method); assay type: biochemical; settings: 100 μM
Method in brief: as §6

[14] = target: Pyrausta nubilalis GSTs; test: Inhibition of total GSTs enzyme of Pyrausta nubilalis (CDNB method); assay type: biochemical
Method in brief: as §6

[15] = target: Chilo suppressalis GSTs; test: Inhibition of total GSTs enzyme of Chilo suppressalis (CDNB method); assay type: biochemical
Method in brief: as §6

[16] = test system: Nilaparvata lugens GSTs; test: Inhibition of total GSTs enzyme of Nilaparvata lugens (CDNB method); assay type: biochemical; settings: 100 μM
Method in brief: as §6

[17] = test system: Spodoptera frugiperda GSTs; test: Inhibition of total GSTs enzyme of Spodoptera frugiperda (CDNB method); assay type: biochemical; settings: 100 μM
Method in brief: as §6

[18] = target: Helicoverpa armigera GSTs; test: Inhibition of total GSTs enzyme of Helicoverpa armigera (CDNB method); assay type: biochemical
Method in brief: as §6

[19] = chlorantraniliprole alone or with 200 mg/L synergist
[20] = Plutella xylostella, read-out: LC50 of chlorantraniliprole solution

Chain of PxGSTσ1 (Q6F436 entry or part of it): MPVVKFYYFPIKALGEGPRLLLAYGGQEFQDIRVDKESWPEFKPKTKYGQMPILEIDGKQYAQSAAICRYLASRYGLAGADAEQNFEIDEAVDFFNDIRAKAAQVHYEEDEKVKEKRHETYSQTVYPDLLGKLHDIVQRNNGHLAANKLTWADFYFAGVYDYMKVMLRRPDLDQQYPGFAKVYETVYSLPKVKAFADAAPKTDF
Chain of PxGSTσ2 (Q6F443 entry or part of it): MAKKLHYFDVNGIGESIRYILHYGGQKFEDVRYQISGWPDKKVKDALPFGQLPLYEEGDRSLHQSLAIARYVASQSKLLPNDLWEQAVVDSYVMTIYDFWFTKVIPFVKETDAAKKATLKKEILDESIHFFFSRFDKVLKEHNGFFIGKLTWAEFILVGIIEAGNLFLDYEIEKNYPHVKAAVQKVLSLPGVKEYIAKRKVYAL
Chain of PxGSTε3 (O77409 entry or part of it): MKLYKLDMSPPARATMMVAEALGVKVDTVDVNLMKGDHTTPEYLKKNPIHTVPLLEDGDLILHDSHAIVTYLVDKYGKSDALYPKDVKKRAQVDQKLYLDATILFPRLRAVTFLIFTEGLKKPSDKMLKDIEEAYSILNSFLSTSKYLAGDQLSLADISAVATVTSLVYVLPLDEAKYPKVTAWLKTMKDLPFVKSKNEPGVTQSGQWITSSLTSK
Chain of PxGSTδ1 (D7URW9 entry or part of it): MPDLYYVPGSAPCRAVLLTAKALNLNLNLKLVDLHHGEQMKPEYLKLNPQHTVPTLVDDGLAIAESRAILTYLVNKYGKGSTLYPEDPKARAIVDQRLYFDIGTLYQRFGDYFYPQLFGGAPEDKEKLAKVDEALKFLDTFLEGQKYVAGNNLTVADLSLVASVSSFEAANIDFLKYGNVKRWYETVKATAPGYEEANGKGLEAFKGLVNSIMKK

inhibition at 100 µM [6] [%]	inhibition at 100 µM [7] [%]	inhibition at 100 µM [8] [%]	inhibition at 100 µM [9] [%]	SMILES	Resistance ratio to chlorantraniliprole [1]	LC50 of chlorantraniliprole solution [1] [µg/mL]	LC50 of indoxacarb [2] [µg/mL]	Resistance ratio to indoxacarb [2]	Resistance ratio to chlorantraniliprole [3]	LC50 of chlorantraniliprole solution [3] [µg/mL]	Resistance ratio to chlorantraniliprole [4, 19]	Resistance ratio to chlorantraniliprole [5, 19]	also measured
				CCOC(=O)/C=C\C(=O)OCC [DEM, diethyl maleate, reference compound]	217.48	50.02	54.11	104.06	1925.26	442.81	232	469.52	LC50 of chlorantraniliprole solution ([4]; in vivo): 53.36 µg/mL; LC50 of chlorantraniliprole solution ([5]; in vivo): 107.99 µg/mL
78.8	45.7	76.7	65.8	O=C(NNC(=O)c1cc(-c2ccccc2)nn1-c1ccccc1)c1cc(=O)[nH]c2ccccc12 [PXG22, N′-(1,3-diphenyl-1H-pyrazol-5-yl-carbonyl)-2-oxo-1,2-dihydroquinoline-4-yl-carbohydrazide]	61.04	14.04	51.21	98.48	645.43	148.45	175.82	243.13	Resistance ratio to chlorantraniliprole ([4]; 50 mg/L PXG22 added): 216.91; Resistance ratio to chlorantraniliprole ([4]; 100 mg/L PXG22 added): 92; Resistance ratio to chlorantraniliprole ([5]; 25 mg/L PXG22 added): 341.48; Resistance ratio to chlorantraniliprole ([5]; 50 mg/L PXG22 added): 312.52; Resistance ratio to chlorantraniliprole ([5]; 100 mg/L PXG22 added): 195.04
68.9	25.5	58.1	17.6	O=C(NNC(=O)c1cc(-c2ccccc2)nn1-c1ccccc1)c1cc[nH]c(=O)c1 [PXG1, N′-(1,3-diphenyl-1H-pyrazol-5-yl-carbonyl)-2-oxo-1,2-dihydropyridinyl-4-carbohydrazide]			59.13	113.71					IC50 [10]: 27.6 µM; 100 μM Inhibition rate % ([10]; 100 μM): 70.90%; IC50 [11]: 52.6 µM; 100 μM Inhibition rate % ([11]; 100 μM): 71.91%; IC50 [12]: 17.7 µM; 100 μM Inhibition rate % ([12]; 100 μM): 80.06%; 100 μM Inhibition rate % [13]: 95.19%; IC50 [14]: 12.1 µM; 100 μM Inhibition rate % ([14]; 100 μM): 87.80%; IC50 [15]: 8.24 µM; 100 μM Inhibition rate % ([15]; 100 μM): 92.32%; 100 μM Inhibition rate % [16]: 100.60%; 100 μM Inhibition rate % [17]: 58.40%; IC50 [18]: 52.8 µM; 100 μM Inhibition rate % ([18]; 100 μM): 77.22%
				CNC(=O)c1cc(Cl)cc(C)c1NC(=O)c1cc(Br)nn1-c1ncccc1Cl [Chl, Chlorantraniliprole, reference compound]	479				2188.61		583.74	631.26	LC50 ([1]; Plutella xylostella, foliar, 48 h, read-out: LC50 of chlorantraniliprole solution): 110 µg/mL; LC50 [3, 20]: 503 µg/mL; LC50 [4, 20]: 134 µg/mL; LC50 [5, 20]: 145 µg/mL
